Columns and labels:
[1] = tested on: Viola tricolor; assay: Post-emergence herbicidal action (Experimental Part 1, A); assay type: in vivo; settings: rated visually after about 3 weeks
Method: (§1) Seeds of monocotyledonous and dicotyledonous weeds and crop plants were placed in sandy loam in plastic or wood-fiber pots, covered with soil and cultivated in a greenhouse under controlled growth conditions. 2 to 3 weeks after sowing, the test plants were treated at the one-leaf stage. The compounds of the invention, formulated in the form of wettable powders (WP) or as emulsion concentrates (EC), were then sprayed onto the green parts of the plants as aqueous suspension or emulsion with addition of 0.5% additive at a water application rate of 600 l/ha (converted). After the test plants had been kept in the greenhouse under optimum growth conditions for about 3 weeks, the activity of the preparations was rated visually in comparison to untreated controls. For example, 100% activity=the plants have died, 0% activity=like control plants. Tables A1 to A14 below show the effects of selected compounds of the general formula (I) according to Tables I.1 to I.116 on various harmful plants and an application rate corresponding to 1280 g/ha or 320 g/ha, which were obtained by the experimental procedure mentioned above.

[2] = tested on: Echinochloa crus-galli; assay: as above; assay type: in vivo; settings: about 3 weeks after treatment, 100% = plants have died, 0% = like control plants
Method: as §1

[3] = tested on: Stellaria media; assay: as above; assay type: in vivo; settings: rated visually after about 3 weeks
Method: as §1

[4] = tested on: Avena fatua; assay: as above; assay type: in vivo; settings: rated visually after about 3 weeks
Method: as §1

[5] = tested on: Amaranthus retroflexus; assay: as above; assay type: in vivo; settings: about 3 weeks after treatment, 100% = plants have died, 0% = like control plants
Method: as §1

[6] = tested on: Hordeum murinum; assay: as above; assay type: in vivo; settings: application rate 1280 g/ha, rated visually after about 3 weeks
Method: as §1

[7] = tested on: Veronica persica; assay: as above; assay type: in vivo; settings: application rate 1280 g/ha, about 3 weeks after treatment, 100% = plants have died, 0% = like control plants
Method: as §1

[8] = tested on: Polygonum convolvulus; assay: as above; assay type: in vivo; settings: rated visually after about 3 weeks
Method: as §1

[9] = tested on: Setaria viridis; assay: as above; assay type: in vivo; settings: about 3 weeks after treatment, 100% = plants have died, 0% = like control plants
Method: as §1

[10] = tested on: Ipomoea purpurea; assay: as above; assay type: in vivo; settings: rated visually after about 3 weeks
Method: as §1

[11] = tested on: Alopecurus myosuroides; assay: as above; assay type: in vivo; settings: about 3 weeks after treatment, 100% = plants have died, 0% = like control plants
Method: as §1

[12] = tested on: Matricaria inodora; assay: as above; assay type: in vivo; settings: rated visually after about 3 weeks
Method: as §1

[13] = tested on: Abutilon theophrasti; assay: as above; assay type: in vivo; settings: about 3 weeks after treatment, 100% = plants have died, 0% = like control plants
Method: as §1

[14] = biological target: T1, photosystem II (PS II) (Spinacia oleracea, UniProt P69560); assay: Measurement of the PS II activity in thylakoid membranes (DCPIP reduction, Experimental Part 3, Table E1); assay type: biochemical; settings: spinach thylakoid membranes
T1 construct: the chloroplasts were osmotically ruptured and the thylakoid membranes were then obtained by centrifugation; from tissue; host or cells: thylakoid membranes from fresh spinach leaves
In short: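 Spinach leaf thylakoid membranes in 50 mM phosphate pH 6.8, 10 mM KCl, 120 μM DCPIP, under light. Compounds added from 100 μM DMSO solution (2.5% DMSO final). DCPIP reduction read as absorbance decrease at 595 nm over 10 min at 22 °C, reported as percent-inhibition classes.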

| Effect (inhibition of PS II activity) [14] | Compound | Viola tricolor, herbicidal activity ([1]; application rate 320 g/ha) [%] | Viola tricolor, herbicidal activity ([1]; application rate 1280 g/ha) [%] | herbicidal activity on Echinochloa crus-galli (visual rating vs untreated controls) ([2]; application rate 1280 g/ha) [%] | Stellaria media, herbicidal activity ([3]; application rate 320 g/ha) [%] | Stellaria media, herbicidal activity ([3]; application rate 1280 g/ha) [%] | Avena fatua, herbicidal activity ([4]; application rate 1280 g/ha) [%] | herbicidal activity on Amaranthus retroflexus (visual rating vs untreated controls) ([5]; application rate 1280 g/ha) [%] | Hordeum murinum, herbicidal activity [6] [%] | herbicidal activity on Veronica persica (visual rating vs untreated controls) [7] [%] | Polygonum convolvulus, herbicidal activity ([8]; application rate 320 g/ha) [%] | Polygonum convolvulus, herbicidal activity ([8]; application rate 1280 g/ha) [%] | herbicidal activity on Setaria viridis (visual rating vs untreated controls) ([9]; application rate 320 g/ha) [%] | herbicidal activity on Setaria viridis (visual rating vs untreated controls) ([9]; application rate 1280 g/ha) [%] | Ipomoea purpurea, herbicidal activity ([10]; application rate 1280 g/ha) [%] | herbicidal activity on Alopecurus myosuroides (visual rating vs untreated controls) ([11]; application rate 320 g/ha) [%] | herbicidal activity on Alopecurus myosuroides (visual rating vs untreated controls) ([11]; application rate 1280 g/ha) [%] | Matricaria inodora, herbicidal activity ([12]; application rate 1280 g/ha) [%] | herbicidal activity on Abutilon theophrasti (visual rating vs untreated controls) ([13]; application rate 320 g/ha) [%] | herbicidal activity on Abutilon theophrasti (visual rating vs untreated controls) ([13]; application rate 1280 g/ha) [%] | other results |
| --- | --- | --- | --- | --- | --- | --- | --- | --- | --- | --- | --- | --- | --- | --- | --- | --- | --- | --- | --- | --- | --- |
| +++ (90%>inhibition≥70%) | CCC(=O)OC1C(C)=CC(=O)N1c1cc(C(C)(C)C)on1 (stereo not drawn) [I.5-162] | 100 | 100 | 100 | 100 | 100 | 100 | 100 | 100 | 100 | 100 | 100 | 100 | 100 | 90 | 90 | 100 | 100 | 100 | 100 | – |
| ++++ (inhibition≥90%) | CC1=CC(=O)N(c2cc(C(C)(C)C)on2)C1O (stereo not drawn) [I.1-162, 5-Hydroxy-4-methyl-1-(5-tert-butyl-1,2-isoxazol-3-yl)-1,5-dihydro-2H-pyrrol-2-one] | 100 | 100 | 100 | 100 | 100 | 100 | 100 | 100 | 100 | 100 | 100 | 100 | 100 | 100 | 90 | 100 | 100 | 100 | 100 | herbicidal activity on Echinochloa crus-galli (visual rating vs untreated controls) ([2]; application rate 320 g/ha): 100%; Avena fatua, herbicidal activity ([4]; application rate 320 g/ha): 90%; herbicidal activity on Amaranthus retroflexus (visual rating vs untreated controls) ([5]; application rate 320 g/ha): 100%; Ipomoea purpurea, herbicidal activity ([10]; application rate 320 g/ha): 100%; Matricaria inodora, herbicidal activity ([12]; application rate 320 g/ha): 100% |

Reference: patent publication US20200079765A1, “SUBSTITUTED HETEROARYL PYRROLONES AND SALTS THEREOF AND USE THEREOF AS HERBICIDAL ACTIVE SUBSTANCES” (Bayer CropScience Aktiengesellschaft, priority 2016, published 2020)
